Test results published in patent US20250009726A1, “A PHARMACEUTICAL COMPOSITION OF FXR AGONIST AND ITS PREPARATION METHOD” (GANNEX PHARMA CO., LTD., priority 2021, published 2025).
Entries after “also recorded” stand apart in the source; their conditions may differ.

What was measured:
Assay type in all cases: physicochemical
[1] = pKa of the compound of formula (I)
From the text: (§1) The solubility of drugs in the acidic environment of the gastrointestinal tract is a prerequisite for their transmembrane transport and absorption into the human body to exert efficacy. Therefore, the very low solubility of the compound limits its use for development as a drug candidate.

[2] = Solubility in solvents (descriptive)
From the text: as §1

[3] = Log D of the compound of formula (I)
From the text: as §1

[4] = Compatibility test of API and excipients (strong light, high temperature, high humidity, 17 days)
[5] = Related substances of pilot tablet batches and API (area normalization); conditions: batch after manufacture
From the text: The amount of impurities in each batch of samples were relatively stable and no significant change in the amount and type of impurities was observed after the tableting process.

[6] = Equilibrium solubility in media with different pH values (shaking 72 h, 37° C.); conditions: for solubility thermodynamic at 72 h: thermodynamic from solid
[7] = normal temperatur, 92.5% RH-17 Days

Structure (SMILES): O=C([O-])c1ccc(Oc2ccc3cc(OCc4c(-c5c(Cl)cccc5Cl)noc4C4CC4)ccc3c2)nc1.[Na+] [COMPOUND I, 6-(6-(((5-cyclopropyl-3-(2,6-dichlorophenyl)isoxazol-4-yl)methoxy)naphthalene-2-yl)oxy) sodium nicotinate]
- pKa [1]: 3.76
- solubility ([2]; 0.01 mol/L sodium hydroxide solutions): practically insoluble
- solubility ([2]; N, N-dimethylformamide): soluble
- solubility ([2]; acetonitrile): practically insoluble
- solubility ([2]; dimethyl sulfoxide): soluble
- solubility ([2]; ethyl acetate): practically insoluble
- solubility ([2]; methanol): soluble
- solubility ([2]; tetrahydrofuran): practically insoluble
- solubility ([2]; water): practically insoluble
- logD [3]: 5.76
- Related substances (%) COMPOUND I-B ([4]; 0 Day): 0.2869%
- Related substances (%) COMPOUND I-IM1 ([4]; 0 Day): 0.2264%
- Related substances (%) Other maximum impurities ([4]; 0 Day): 0.1001%
- Related substances (%) Total impurities ([4]; 0 Day): 1.4056%
- Related substances (%) COMPOUND I-B ([4]; 25° C., 4500Lx-17 Days): 0.2896%
- Related substances (%) COMPOUND I-IM1 ([4]; 25° C., 4500Lx-17 Days): 0.2338%
- Related substances (%) Other maximum impurities ([4]; 25° C., 4500Lx-17 Days): 0.1135%
- Related substances (%) Total impurities ([4]; 25° C., 4500Lx-17 Days): 1.4901%
- Related substances (%) COMPOUND I-B ([4]; 60° C.-17 Days): 0.2964%
- Related substances (%) COMPOUND I-IM1 ([4]; 60° C.-17 Days): 0.2278%
- Related substances (%) Other maximum impurities ([4]; 60° C.-17 Days): 0.1158%
- Related substances (%) Total impurities ([4]; 60° C.-17 Days): 1.4686%
- Related substances (%) COMPOUND I-B [4, 7]: 0.2836%
- Related substances (%) COMPOUND I-IM1 [4, 7]: 0.2318%
- Related substances (%) Other maximum impurities [4, 7]: 0.1124%
- Related substances (%) Total impurities [4, 7]: 1.4400%
- total impurity fluctuations of related substances ([4]; strong light, high temperature and high humidity, compared with 0 day): less than 0.5%
- COMPOUND I-C ([5]; criterion NMT 0.15%): Not detected
- COMPOUND I-IM1 ([5]; criterion NMT 0.15%): 0.12%
- COMPOUND I-IM2 ([5]; criterion NMT 0.15%): 0.12%
- Any individual unspecified impurity ([5]; criterion NMT 0.2%): 0.048%
- COMPOUND I-B ([5]; criterion NMT 0.20%): 0.015%
- Total impurities ([5]; criterion NMT 2.0%): 0.47%
- solubility thermodynamic at 72 h ([6]; aqueous buffer, pH 6.0, 37° C.): 1.5 µg/mL
- solubility thermodynamic at 72 h ([6]; aqueous buffer, pH 6.8, 37° C.): 217 µg/mL
- solubility thermodynamic at 72 h ([6]; aqueous buffer, pH 7.0, 37° C.): 365 µg/mL
- solubility thermodynamic at 72 h ([6]; aqueous buffer, pH 8.0, 37° C.): 20400 µg/mL
- solubility (in words) ([6]; low pH (pH 1.0-5.0)): almost insoluble
- solubility (in words) ([6]; low pH (pH 1.0-5.0), listed as compound of formula (I)): practically insoluble
- solubility (in words) ([6]; pH 6.8): very slightly soluble
- solubility (in words) ([6]; pure water): sparingly soluble; also recorded: slightly soluble
- solubility thermodynamic at 72 h ([6]; water, pH 9.3, water, H2O (The final pH was around 9.3), 37° C.): 22300 µg/mL
